Values after ≈ are worked out from the molar mass of the structure shown. Values joined by “and” are separate entries in the source; they are usually repeats but may differ in a detail not shown here. Identical values can stand only once. Like-named read-outs stand apart in the source and are kept apart here.
What was measured:
[1] = system: Staph. aureus SK & F 2593; assay type: cell-based; details: Staphylococcus aureus
[2] = system: Strep. faecilis HH34358; assay type: cell-based
[3] = system: Staph. aureus SK & F 2595; assay type: cell-based; details: Staphylococcus aureus
[4] = system: Staph. aureus HH127; assay type: cell-based; details: Staphylococcus aureus
[5] = system: Staph. aureus SK & F 2677; assay type: cell-based; details: Staphylococcus aureus
[6] = system: B. thetaiotamicron SK & F 3089; assay type: cell-based
[7] = system: Proteus mirabilis SK & F 444; assay type: cell-based; details: Proteus mirabilis
[8] = system: Staph. aureus SK & F 2594; assay type: cell-based; details: Staphylococcus aureus
[9] = system: Serratia marcesens ATCC 13880; assay type: cell-based; details: Serratia, ATCC13880
[10] = system: B. fragilis SK & F 3060; assay type: cell-based, Bacteroides fragilis; details: Bacteroides fragilis
[11] = system: rumen in vitro model; experiment: rumen in vitro model (growth promotant activity); set-up: species or system steer
Experimental: The protocol for the rumen in vitro model is analogous to the protocol for the swine in vitro model with the following modifications:
(1) A 400 kg steer is surgically prepared with a rumen cannula.
(2) The animal is fed one time a day with the following ration:
(3) Manipulation of VFA production is described as the production ratio of propionate as a percentage of total VFA produced.
(4) Sampling of the material, via the cannula, is at 120 minutes post feeding.

[12] = system: B. fragilis H145; assay type: cell-based, Bacteroides fragilis; details: Bacteroides fragilis, H145
[13] = system: Enterobacter cloacae HH31254; assay type: cell-based; details: Enterobacter cloacae, HH31254
[14] = system: K. aridum; experiment: susceptibility of K. aridum to antibiotics, disk diffusion method; assay type: cell-based, Kibdelosporangium aridum; details: disk 30 μg
Experimental: Susceptibility of K. aridum to antibiotics was examined by placing BBL susceptibility disks on nutrient agar plates seeded with K. aridum as an overlay. Diameters of the zones of inhibition were measured after incubation for one week at 28° C.
Chlortetracycline ([…]) produced 18 mm zones of inhibition; tetracycline (5 μg) 11-12 mm zones; rifampin (5 μg) 11-15 mm zones; novobiocin (5 μg) 27-28 mm zones. All zones of inhibition contained at least a few resistant colonies.

[15] = system: Staph. aureus SK & F 2680; assay type: cell-based; details: Staphylococcus aureus
[16] = system: Staph. aureus SK & F 2682; assay type: cell-based; details: Staphylococcus aureus
[17] = system: Staph. aureus SK & F 2616; assay type: cell-based; details: Staphylococcus aureus
[18] = system: Fusobacterium nucleatum ATCC 25586; assay type: cell-based; details: Fusobacterium nucleatum, ATCC25586
[19] = system: Salmonella gallinarum BC595; experiment: microbe, parasite or virus in culture; details: Salmonella enterica
[20] = system: Bacteroides fragilis ATCC 25285; assay type: cell-based; details: Bacteroides fragilis, ATCC25285
[21] = system: Staph. aureus SK & F 2621; assay type: cell-based; details: Staphylococcus aureus
[22] = system: Staph. epidermidis SK & F 651; assay type: cell-based; details: Staphylococcus epidermidis
[23] = system: Staph. aureus SK & F 2776; assay type: cell-based; details: Staphylococcus aureus
[24] = system: Staph. aureus SK & F 2678; assay type: cell-based; details: Staphylococcus aureus
[25] = system: Staph. aureus 209P; assay type: cell-based; details: Staphylococcus aureus
[26] = system: Staph. aureus SK & F 675; assay type: cell-based; details: Staphylococcus aureus
[27] = system: Staph. aureus SK & F 2590; assay type: cell-based; details: Staphylococcus aureus
[28] = system: Proteus morgani SK & F 179; assay type: cell-based
[29] = system: Staph. aureus SK & F 2615; assay type: cell-based; details: Staphylococcus aureus
[30] = system: Staph. aureus SK & F 2620; assay type: cell-based; details: Staphylococcus aureus
[31] = system: Strep. faecalis SK & F 657; assay type: cell-based; details: Enterococcus faecalis
[32] = system: Staph. aureus SK & F 2736; assay type: cell-based; details: Staphylococcus aureus
[33] = system: Staph. aureus HH 127; experiment: animal or person; details: Staphylococcus aureus, HH127, in Mus musculus
[34] = system: Staph. aureus 209P-Mutant; experiment: microbe, parasite or virus in culture; assay type: cell-based; details: Staphylococcus aureus, 209P
[35] = system: Staph. aureus SK & F 2597; assay type: cell-based; details: Staphylococcus aureus
[36] = system: Clostridium perfringens MCP-1; experiment: microbe, parasite or virus in culture; details: MCP1
[37] = system: C. perfringens ATCC 19408; experiment: microbe, parasite or virus in culture; details: Clostridium perfringens, ATCC19408
[38] = system: Staph. aureus SK & F 910; assay type: cell-based; details: Staphylococcus aureus

Q: How did the MIC [1] turn out when CN[C@H](CC(C)C)C(=O)N[C@H]1C(=O)N[C@@H](CC(N)=O)C(=O)N[C@H]2C(=O)N[C@H]3C(=O)N[C@H](C(=O)N[C@H](C(=O)O)c4cc(O)cc(O)c4-c4cc3ccc4O)[C@H](O)c3ccc(c(Cl)c3)Oc3cc2cc(c3O[C@@H]2O[C@H](CO)[C@@H](O)[C@H](O)[C@H]2O[C@H]2C[C@](C)(N)[C@H](O)[C@H](C)O2)Oc2ccc(cc2Cl)[C@H]1O [Vancomycin, reference compound] was run?
A: 1.6 µg/mL (≈ 1.1 µM)

Q: What about the MIC [2] of the same compound?
A: 3.1 µg/mL (≈ 2.14 µM)

Q: And the MIC ([2]; Enterococcus faecalis, HH34358)?
A: 6.3 µg/mL (≈ 4.35 µM)

Q: And the MIC [3]?
A: ~1.6 µg/mL (≈ 1.1 µM)

Q: What about the MIC ([4]; HH127, Table A) of the same compound?
A: 1.6 µg/mL (≈ 1.1 µM)

Q: And the MIC ([4]; HH127, Table B, Methicillin Sensitive)?
A: 1.6 µg/mL (≈ 1.1 µM)

Q: And the MIC ([4]; HH127, Table E)?
A: 3.1 µg/mL (≈ 2.14 µM)

Q: And the MIC [5]?
A: 1.6 µg/mL (≈ 1.1 µM)

Q: And the MIC [6]?
A: 32 µg/mL (≈ 22.1 µM)

Q: What about the MIC [7] of the same compound?
A: 100 µg/mL (≈ 69 µM)

Q: What about the MIC [8] of the same compound?
A: 1.6 µg/mL (≈ 1.1 µM)

Q: And the MIC [9]?
A: > 100 µg/mL

Q: And the MIC [10]?
A: 32 µg/mL (≈ 22.1 µM)

Q: And the Propionate % [11]?
A: 127 % Control and 130 % Control and 105 % Control

Q: And the “VFA (total of volatile fatty acids)” value [11]?
A: 107 % Control and 97 % Control

Q: What about the MIC [12] of the same compound?
A: 32 µg/mL (≈ 22.1 µM)

Q: What about the MIC [13] of the same compound?
A: > 100 µg/mL

Q: And the “susceptibility of K. aridum” value [14]?
A: resistant

Q: What about the MIC [15] of the same compound?
A: 1.6 µg/mL (≈ 1.1 µM)

Q: And the MIC [16]?
A: 1.6 µg/mL (≈ 1.1 µM)

Q: What about the MIC [17] of the same compound?
A: 0.8 µg/mL (≈ 0.552 µM)

Q: And the MIC [18]?
A: 32 µg/mL (≈ 22.1 µM)

Q: What about the MIC ([19]; Table A) of the same compound?
A: 25 µg/mL (≈ 17.3 µM)

Q: And the MIC ([19]; Table E)?
A: > 100 µg/mL

Q: And the MIC [20]?
A: 32 µg/mL (≈ 22.1 µM)

Q: And the MIC [21]?
A: 1.6 µg/mL (≈ 1.1 µM)

Q: And the MIC ([22]; Table A)?
A: 1.6 µg/mL (≈ 1.1 µM)

Q: And the MIC ([22]; Table E)?
A: 6.3 µg/mL (≈ 4.35 µM)

Q: And the MIC [23]?
A: 1.6 µg/mL (≈ 1.1 µM)

Q: What about the MIC [24] of the same compound?
A: 1.6 µg/mL (≈ 1.1 µM)

Q: What about the MIC [25] of the same compound?
A: 1.6 µg/mL (≈ 1.1 µM)

Q: What about the MIC ([26]; Table C, Methicillin Resistant) of the same compound?
A: 1.6 µg/mL (≈ 1.1 µM)

Q: What about the MIC ([26]; Table E) of the same compound?
A: 3.1 µg/mL (≈ 2.14 µM)

Q: What about the MIC [27] of the same compound?
A: 1.6 µg/mL (≈ 1.1 µM)

Q: And the MIC [28]?
A: > 100 µg/mL

Q: What about the MIC [29] of the same compound?
A: 3.1 µg/mL (≈ 2.14 µM)

Q: And the MIC [30]?
A: 3.1 µg/mL (≈ 2.14 µM)

Q: What about the MIC [31] of the same compound?
A: 3.1 µg/mL (≈ 2.14 µM)

Q: And the MIC [32]?
A: 1.6 µg/mL (≈ 1.1 µM)

Q: What about the ED50 [33] of the same compound?
A: 1.76 mg/kg

Q: And the MIC [34]?
A: > 100 µg/mL

Q: And the MIC [35]?
A: 3.1 µg/mL (≈ 2.14 µM)

Q: What about the MIC [36] of the same compound?
A: 0.5 µg/mL (≈ 0.345 µM)

Q: What about the MIC [37] of the same compound?
A: 1 µg/mL (≈ 0.69 µM)

Q: What about the MIC ([38]; Table A) of the same compound?
A: 1.6 µg/mL (≈ 1.1 µM)

Q: What about the MIC ([38]; Table B, Methicillin Sensitive) of the same compound?
A: 1.6 µg/mL (≈ 1.1 µM)

Q: And the MIC ([38]; Table E)?
A: 3.1 µg/mL (≈ 2.14 µM)

— patent publication US4672036A, “Pure cultures of Kibdelsporangium aridum Shearer gen. nov., sp. nov. ATCC 39323 and mutants thereof” (SmithKline Beckman Corporation, priority 1985, dated 1987)
